The values that follow come from BindingDB's records for doi:10.1016/j.ejmech.2019.111668 (Yantai University, 2019).

A short description of series [1]: Reversal of P-gp-mediated multidrug resistance in human KBV cells assessed as potentiation of vincristine-induced cytotoxicity by measuring vincristine IC50 at 5 uM after 72 hrs by MTT assay (Rvb = 2.92 +/- 0.31 nM). A general note: Tetrazolium dyes change colour on reduction, which living cells bring about.
Series [2] in a line: Reversal of P-gp-mediated multidrug resistance in human KBV cells assessed as potentiation of irinotecan-induced cytotoxicity by measuring irinotecan IC50 at 10 uM after 72 hrs by MTT assay (Rvb = 49.2 +/- 0.46 nM).
Series [3] can be described thus: Reversal of P-gp-mediated multidrug resistance in human KBV cells assessed as potentiation of irinotecan-induced cytotoxicity by measuring irinotecan IC50 at 5 uM after 72 hrs by MTT assay (Rvb = 49.2 +/- 0.46 nM).
Series [4] is described as follows: Reversal of P-gp-mediated multidrug resistance in human KBV cells assessed as potentiation of vincristine-induced cytotoxicity by measuring vincristine IC50 at 10 uM after 72 hrs by MTT assay (Rvb = 2.92 +/- 0.31 nM).
Series [5] is described as follows: Reversal of P-gp-mediated multidrug resistance in human KBV cells assessed as potentiation of paclitaxel-induced cytotoxicity by measuring paclitaxel IC50 at 10 uM after 72 hrs by MTT assay (Rvb = 352.31 +/- 10.9 nM).
Series [6] can be described thus: Reversal of P-gp-mediated multidrug resistance in human KBV cells assessed as potentiation of paclitaxel-induced cytotoxicity by measuring paclitaxel IC50 at 5 uM after 72 hrs by MTT assay (Rvb = 352.31 +/- 10.9 nM).

For orientation: IC50 means the concentration at which inhibition is half-maximal. Turning to `CC(=O)O[C@H]1C[C@@]2(C)[C@@H](C[C@@H](O)[C@H]3[C@@]4(C)CC[C@@H](O)[C@@H](C)[C@@H]4CC[C@@]32C)/C1=C(\CCC=C(C)C)C(=O)OCc1ccccc1`, the IC50 in series [1] is 0.144 µM; in series [2] it was 16.2 µM; in series [3] it was 37.2 µM; in series [4] it was 0.092 µM; in series [5], 0.007 µM; in series [6], 0.017 µM.
